Assay results reported in patent publication US20220274947A1, “NOVEL HETEROARYL-TRIAZOLE COMPOUNDS AS PESTICIDES” (Bayer Aktiengesellschaft, priority 2019, published 2022).

Experiments:
Format in all cases: in vivo
Ctenocephalides felis = Ctenocephalides felis oral test (CTECFE Oral); conditions: 48 h, read-out: activity (mortality)
Summary of the method: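 About 20 unfed adult cat fleas fed through parafilm on cattle blood containing compound (DMSO concentrate diluted in blood to the desired concentration). Blood held at 37 °C, fleas at room temperature. Mortality (%) scored after 2 days.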

Rhipicephalus sanguineus = Rhipicephalus sanguineus in-vitro contact test, adult brown dog ticks (RHIPSA Cont); conditions: 48 h, after 48 hours, read-out: activity (efficacy: 100% means all ticks are dead or moribund); for pest or weed control at 1 µg/cm2, 100 g/ha: application rate 1 μg/cm^2 (=100 g/ha); for pest or weed control at 5 µg/cm2, 500 g/ha: application rate 5 μg/cm^2 (=500 g/ha)
Summary of the method: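 Mortality of adult R. sanguineus was judged 48 h after contact with acetone-applied residues on glass tube walls. Ticks that stayed immotile or moved without coordination when heated to 45–50 °C (max 5 min) counted as dead or moribund.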

Myzus persicae [1] = experiment: Myzus persicae spray test; conditions: in Brassica rapa, foliar, 120 h; for mortality at 100 g/ha: read-out: activity (mortality), application rate 100 g/ha, spray, Chinese cabbage leaf disks, after 5 days; for mortality at 500 g/ha: read-out: activity (mortality), application rate 500 g/ha, spray, Chinese cabbage leaf disks, after 5 days
Summary of the method: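 Compound in acetone/DMF solvent diluted in water with 1000 ppm alkylarylpolyglycol ether emulsifier, sprayed onto Chinese cabbage leaf disks infested with all instars of Myzus persicae. Mortality (%) scored after 5 days.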

Nezara viridula = Nezara viridula spray test; conditions: in Hordeum vulgare, 96 h, barley plants, larvae, after 4 days; for mortality at 100 g/ha: application rate 100 g/ha; for mortality at 500 g/ha: application rate 500 g/ha
Summary of the method: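 Barley plants infested with N. viridula larvae were sprayed with compound in acetone/DMF diluted with water containing 1000 ppm alkylarylpolyglycol ether emulsifier. Mortality (%) was scored after 4 days; 100% means all bugs killed, 0% none.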

[2] = tested on: Musca domestica strain WHO—N; experiment: Musca domestica test (MUSCDO surface treatment & contact assay); conditions: exposure 30 minutes, 24 hours after contact, read-out: efficacy (mortality); for mortality at 4 mg/m2: surface concentration 4 mg/m^2, glazed tile; for mortality at 20 mg/m2: surface concentration 20 mg/m^2, glazed tile
Summary of the method: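 Compound dissolved in acetone (2 mg/ml) with 2000 ppm rapeseed oil methyl ester and pipetted onto glazed tile; after acetone evaporation, adult flies exposed to dried surface for 30 minutes. Mortality (%) scored 24 hours after contact.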

Myzus persicae [3] = experiment: Myzus persicae oral test; conditions: 120 h, read-out: activity (mortality)
Summary of the method: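 Percent mortality was recorded at day 5, where 0% means no aphids killed. Compound prepared from an acetone concentrate diluted in water and combined with IPL41 medium containing sugar was offered to mixed-stage green peach aphids, which sucked it through a parafilm seal.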

[4] = tested on: Anopheles funestus strain FUMOZ-R; experiment: Anopheles funestus test (ANPHFU surface treatment & contact assay); conditions: exposure 30 minutes, 24 hours after contact, read-out: efficacy (mortality)
Summary of the method: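 Adult FUMOZ-R mosquitoes were exposed 30 min to glazed tiles treated with compound in acetone plus 2000 ppm rapeseed oil methyl ester, after solvent evaporation. Percent mortality was scored 24 h after contact.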

Row | Structure (SMILES) | mortality at 100 ppm (Ctenocephalides felis) | pest or weed control at 1 µg/cm2, 100 g/ha (Rhipicephalus sanguineus) | pest or weed control at 5 µg/cm2, 500 g/ha (Rhipicephalus sanguineus) | mortality at 100 g/ha (Myzus persicae [1]) | mortality at 100 g/ha (Nezara viridula) | mortality at 4 mg/m2 [2] | mortality at 20 mg/m2 [2] | mortality at 4 ppm (Myzus persicae [3]) | mortality at 500 g/ha (Nezara viridula) | mortality at 0.8 ppm (Myzus persicae [3]) | mortality at 500 g/ha (Myzus persicae [1]) | mortality at 4 mg/m2 ([4]; surface concentration 4 mg/m^2, glazed tile) | mortality at 20 mg/m2 ([4]; surface concentration 20 mg/m^2, glazed tile)
1 | C[C@H](NC(=O)c1cc(Cl)cc(C#N)c1)c1ncnn1-c1ccc(C#N)cn1 [II-57] | 100% | 100% | 100% | 90% | 100% | 80 to 100% | 80 to 100% | – | – | – | – | – | –
2 | C[C@H](NC(=O)c1cc(Cl)cc(C(F)(F)F)c1)c1ncnn1-c1cc(N)ccn1 [II-28] | 100% | 100% | 100% | – | – | – | 80 to 100% | 90% | 90% | – | – | – | –
3 | Cc1nc([C@H](C)NC(=O)c2cc(Cl)cc(C#N)c2)n(-c2ccc(C#N)cn2)n1 [II-61] | 100% | 100% | 100% | 90% | 100% | 80 to 100% | 80 to 100% | 100% | – | – | – | – | –
4 | Cc1nc([C@H](C)NC(=O)c2cc(Cl)nc(C(F)(F)F)c2)n(-c2ccc(C#N)cn2)n1 [II-62] | 100% | 100% | 100% | 100% | 100% | 80 to 100% | 80 to 100% | 100% | – | – | – | – | –
5 | CC(C)c1nc([C@H](C)NC(=O)c2cncc(C(F)(F)F)c2)n(-c2ccc(C#N)cn2)n1 [I-30] | 100% | 80% | – | – | – | – | 80 to 100% | 90% | – | – | – | – | –
6 | C[C@H](NC(=O)c1cc(C(F)(F)F)cc(C(F)(F)F)c1)c1ncnn1-c1ncc(Br)s1 [II-41] | – | 100% | 100% | – | 90% | 80 to 100% | 80 to 100% | 100% | – | – | – | – | –
7 | Cc1nc([C@H](C)NC(=O)c2cc(C(F)(F)F)cc(C(F)(F)F)c2)n(-c2cc(C#N)ccn2)n1 [II-19] | 100% | 100% | 100% | – | – | – | 80 to 100% | 100% | – | 100% | – | – | –
8 | Cc1nc([C@H](C)NC(=O)c2cc(OC(F)(F)F)cc(C(F)F)c2)n(-c2ccc(C#N)cn2)n1 [II-117] | – | 100% | 100% | 100% | 100% | 80 to 100% | 80 to 100% | 100% | – | 100% | – | – | –
9 | Cc1nc([C@H](C)NC(=O)c2cc(C(F)(F)F)cc(C(F)(F)F)c2)n(-c2ccc(C(=O)N(C)CC#N)cn2)n1 [II-99] | – | 100% | 100% | 90% | 100% | 80 to 100% | 80 to 100% | 100% | – | 100% | – | – | –
10 | C[C@H](NC(=O)c1cc(Cl)cc(OC(F)(F)F)c1)c1ncnn1-c1cc(N)ccn1 [II-7] | 100% | – | – | – | – | – | 80 to 100% | 100% | 90% | – | 100% | – | –
11 | C[C@H](NC(=O)c1cc(Cl)cc(SC(F)F)c1)c1ncnn1-c1ccc(C#N)cn1 [II-11] | 100% | – | 80% | – | 100% | 80 to 100% | 80 to 100% | 100% | – | – | – | – | –
12 | Cc1nc([C@H](C)NC(=O)c2cc(Cl)cc(C(F)(F)F)c2)n(-c2cc(C#N)ccn2)n1 [II-18] | 90% | 100% | 100% | – | – | 80 to 100% | 80 to 100% | 100% | – | – | – | – | –
13 | Cc1nc([C@H](C)NC(=O)c2cc(Cl)cc(C(F)F)c2)n(-c2ccc(C#N)cn2)n1 [II-65] | 100% | 100% | 100% | 90% | 100% | 80 to 100% | 80 to 100% | 100% | – | – | – | – | –
14 | CC(=O)Nc1ccnc(-n2ncnc2[C@H](C)NC(=O)c2cc(Cl)cc(OC(F)(F)F)c2)c1 [II-22] | 100% | – | – | – | – | 80 to 100% | 80 to 100% | – | – | – | – | 80 to 100% | 80 to 100%
15 | C[C@H](NC(=O)c1cc(Br)cc(Br)c1)c1ncnn1-c1ccc(C#N)cn1 [II-13] | 100% | 100% | 80% | – | – | 80 to 100% | 80 to 100% | 90% | 90% | – | – | – | –
16 | C[C@H](NC(=O)c1cc(OC(F)(F)F)cc(C(F)F)c1)c1ncnn1-c1ccc(C#N)cn1 [II-111] | – | 100% | 100% | – | 100% | – | 80 to 100% | 100% | – | 90% | – | – | –
17 | C[C@H](NC(=O)c1cc(Cl)cc(OC(F)(F)F)c1)c1ncnn1-c1ncc(OC(F)F)cn1 [II-30] | 100% | 100% | 100% | – | 100% | 80 to 100% | 80 to 100% | 100% | 100% | – | – | – | –
18 | C[C@H](NC(=O)c1cc(C(F)(F)F)cc(C(F)(F)F)c1)c1ncnn1-c1ccc(C(=O)NC2CC2)cn1 [II-37] | – | – | 80% | – | 90% | – | – | 100% | 100% | 100% | 100% | – | –
19 | Cc1nc([C@H](C)NC(=O)c2cc(Br)cc(C(F)(F)F)c2)n(-c2ccc(C#N)cn2)n1 [II-32] | – | 100% | 100% | 100% | 100% | 80 to 100% | 80 to 100% | 100% | 100% | 100% | 90% | – | –
